Here are results for 11 compounds from patent publication US11339161B2, “Triazolo pyridines as modulators of gamma-secretase” (Boehringer Ingelheim International GmbH, priority 2017, dated 2022).

The target of one experiment is MAP4K4 (HGK) (Homo sapiens, UniProt O95819). Description: Z'-LYTE SelectScreen biochemical kinase assay MAP4K4 (HGK). The text has this:
(§1) Thermo Fisher Scientific SelectScreen™ Biochemical Kinase Profiling Service Z′-LYTE™ Screening Protocol and Assay Conditions Assay Theory
(§2) The […] biochemical assay employs a fluorescence-based, coupled-enzyme format and is based on the differential sensitivity of phosphorylated and non-phosphorylated peptides to proteolytic cleavage. The peptide substrate is labeled with two fluorophores—one at each end—that make up a FRET pair. In the primary reaction, the kinase transfers the gamma-phosphate of ATP to a single tyrosine, serine or threonine residue in a synthetic FRET-peptide. In the secondary reaction, a site-specific protease recognizes and cleaves non-phosphorylated FRET-peptides. Phosphorylation of FRET-peptides suppresses cleavage by the Development Reagent. Cleavage disrupts FRET between the donor (i.e., coumarin) and acceptor (i.e., fluorescein) fluorophores on the FRET-peptide, whereas uncleaved, phosphorylated FRET-peptides maintain FRET. A ratiometric method, which calculates the ratio (Emission Ratio=Coumarin emission (445 nm)/Fluorescein emission (520 nm)) of donor emission to acceptor emission after excitation of the donor fluorophore at 400 nm, is used to quantitate reaction progress, as shown in the equation below. A significant benefit of this ratiometric method for quantitating reaction progress is the elimination of well-to-well variations in FRET-peptide concentration and signal intensities. As a result, the assay yields very high Z′-factor values (>0.7) at a low percent phosphorylation. Both cleaved and uncleaved FRET-peptides contribute to the fluorescence signals and therefore to the Emission Ratio. The extent of phosphorylation of the FRET-peptide can be calculated from the Emission Ratio. The Emission Ratio will remain low if the FRET-peptide is phosphorylated (i.e., no kinase inhibition) and will be high if the FRET-peptide is non-phosphorylated (i.e., kinase inhibition).
(§3) The Test Compounds are screened in 1% DMSO (final) in the well. For 10 point titrations, 3-fold serial dilutions are conducted from the starting concentration of the customer's choosing.
(§4) All Peptide/Kinase Mixtures are diluted to a 2× working concentration in the appropriate Kinase Buffer (see section Kinase Specific Assay Conditions for a complete description).
(§5) All ATP Solutions are diluted to a 4× working concentration in Kinase Buffer (50 mM HEPES pH 7.5, 0.01% BRIJ-35, 10 mM MgCl2, 1 mM EGTA). ATP Km apparent is previously determined using a Z″-LYTE assay.
(§6) The Development Reagent is diluted in Development Buffer (see section Kinase-Specific Assay Conditions—Direct and Cascade for a complete description).
(§7) Bar-coded Corning, low volume NBS, black 384-well plate (Corning Cat. #4514) • 1. 100 nL—100× Test Compound in 100% DMSO • 2. 2.4 μL—Kinase buffer • 3. 5 μL—2× Peptide/Kinase Mixture • 4. 2.5 μL—4×ATP Solution • 5. 30—second plate shake • 6. 60—minute Kinase Reaction incubation at room temperature • 7. 5 μL—Development Reagent Solution • 8. 30—second plate shake • 9. 60—minute Development Reaction incubation at room temperature • 10. Read on fluorescence plate reader and analyze the data Z′-LYTE Assay Controls
(§8) SelectScreen Kinase Profiling Service uses XLfit from IDBS. The dose response curve is curve fit to model number 205 (sigmoidal dose-response model).
The 2×MAP4K4 (HGK)/Ser/Thr 07 mixture is prepared in 50 mM HEPES pH 7.5, 0.01% BRIJ-35, 10 mM MgCl2, 1 mM EGTA. The final 10 μL Kinase Reaction consists of 0.36-1.82 ng MAP4K4 (HGK) and 2 μM Ser/Thr 07 in 50 mM HEPES pH 7.5, 0.01% BRIJ-35, 10 mM MgCl2, 1 mM EGTA. After the 1 hour Kinase Reaction incubation, 5 μL of a 1:45000 dilution of Development Reagent A is added.

Another experiment addresses T1, AURKA (Aurora A) (Homo sapiens, UniProt O14965).
T1 sequence (O14965 1-403): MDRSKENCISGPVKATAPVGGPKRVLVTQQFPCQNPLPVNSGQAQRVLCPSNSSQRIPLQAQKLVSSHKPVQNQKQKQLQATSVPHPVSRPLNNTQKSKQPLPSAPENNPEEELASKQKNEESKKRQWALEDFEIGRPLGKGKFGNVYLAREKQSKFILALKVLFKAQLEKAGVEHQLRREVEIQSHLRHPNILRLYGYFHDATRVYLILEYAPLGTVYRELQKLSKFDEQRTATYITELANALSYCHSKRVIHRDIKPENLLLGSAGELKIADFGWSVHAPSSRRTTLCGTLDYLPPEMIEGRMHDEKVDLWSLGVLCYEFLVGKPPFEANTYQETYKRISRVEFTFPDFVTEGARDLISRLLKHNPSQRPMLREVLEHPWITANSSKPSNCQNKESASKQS
Briefly: Z'-LYTE SelectScreen biochemical kinase assay AURKA (Aurora A).
Source text: as §1, §2, §3, §4, §5, §6, §7, §8
The 2×AURKA (Aurora A)/Ser/Thr 01 mixture is prepared in 50 mM HEPES pH 7.5, 0.01% BRIJ-35, 10 mM MgCl2, 1 mM EGTA. The final 10 μL Kinase Reaction consists of 0.91-8.56 ng AURKA (Aurora A) and 2 μM Ser/Thr 01 in 50 mM HEPES pH 7.5, 0.01% BRIJ-35, 10 mM MgCl2, 1 mM EGTA. After the 1 hour Kinase Reaction incubation, 5 μL of a 1:4096 dilution of Development Reagent A is added.

The next experiment addresses CSF1R (FMS) (Homo sapiens, UniProt P07333). Description: Z'-LYTE SelectScreen biochemical kinase assay CSF1R (FMS).
Source text: as §1, §2, §3, §4, §5, §6, §7, §8
The 2×CSF1R (FMS)/Tyr 01 mixture is prepared in 50 mM HEPES pH 7.5, 0.01% BRIJ-35, 10 mM MgCl2, 1 mM EGTA. The final 10 μL Kinase Reaction consists of 0.2-40 ng CSF1R (FMS) and 2 μM Tyr 01 in 50 mM HEPES pH 7.5, 0.01% BRIJ-35, 10 mM MgCl2, 1 mM EGTA. After the 1 hour Kinase Reaction incubation, 5 μL of a 1:256 dilution of Development Reagent B is added.

The mark [1] stands for this setting: 10 μmolar compound concentration, ATP at Km app, read-out: MAP4K4 (HGK) inhibition.
The mark [2] stands for this setting: read-out: % Inhibition mean MAP4K4 (HGK).
Setting [3] is: 10 μmolar compound concentration, ATP at Km app, read-out: AURKA (Aurora A) inhibition.
Where [4] appears, read: read-out: % Inhibition mean AURKA (Aurora A).
Setting [5] is: 10 μmolar compound concentration, ATP at Km app, read-out: CSF1R (FMS) inhibition.
Where [6] appears, read: read-out: % Inhibition mean CSF1R (FMS).

Read-outs that look alike come from different tables or passages of the source.

Sequence of MAP4K4 (HGK) (O95819 whole entry): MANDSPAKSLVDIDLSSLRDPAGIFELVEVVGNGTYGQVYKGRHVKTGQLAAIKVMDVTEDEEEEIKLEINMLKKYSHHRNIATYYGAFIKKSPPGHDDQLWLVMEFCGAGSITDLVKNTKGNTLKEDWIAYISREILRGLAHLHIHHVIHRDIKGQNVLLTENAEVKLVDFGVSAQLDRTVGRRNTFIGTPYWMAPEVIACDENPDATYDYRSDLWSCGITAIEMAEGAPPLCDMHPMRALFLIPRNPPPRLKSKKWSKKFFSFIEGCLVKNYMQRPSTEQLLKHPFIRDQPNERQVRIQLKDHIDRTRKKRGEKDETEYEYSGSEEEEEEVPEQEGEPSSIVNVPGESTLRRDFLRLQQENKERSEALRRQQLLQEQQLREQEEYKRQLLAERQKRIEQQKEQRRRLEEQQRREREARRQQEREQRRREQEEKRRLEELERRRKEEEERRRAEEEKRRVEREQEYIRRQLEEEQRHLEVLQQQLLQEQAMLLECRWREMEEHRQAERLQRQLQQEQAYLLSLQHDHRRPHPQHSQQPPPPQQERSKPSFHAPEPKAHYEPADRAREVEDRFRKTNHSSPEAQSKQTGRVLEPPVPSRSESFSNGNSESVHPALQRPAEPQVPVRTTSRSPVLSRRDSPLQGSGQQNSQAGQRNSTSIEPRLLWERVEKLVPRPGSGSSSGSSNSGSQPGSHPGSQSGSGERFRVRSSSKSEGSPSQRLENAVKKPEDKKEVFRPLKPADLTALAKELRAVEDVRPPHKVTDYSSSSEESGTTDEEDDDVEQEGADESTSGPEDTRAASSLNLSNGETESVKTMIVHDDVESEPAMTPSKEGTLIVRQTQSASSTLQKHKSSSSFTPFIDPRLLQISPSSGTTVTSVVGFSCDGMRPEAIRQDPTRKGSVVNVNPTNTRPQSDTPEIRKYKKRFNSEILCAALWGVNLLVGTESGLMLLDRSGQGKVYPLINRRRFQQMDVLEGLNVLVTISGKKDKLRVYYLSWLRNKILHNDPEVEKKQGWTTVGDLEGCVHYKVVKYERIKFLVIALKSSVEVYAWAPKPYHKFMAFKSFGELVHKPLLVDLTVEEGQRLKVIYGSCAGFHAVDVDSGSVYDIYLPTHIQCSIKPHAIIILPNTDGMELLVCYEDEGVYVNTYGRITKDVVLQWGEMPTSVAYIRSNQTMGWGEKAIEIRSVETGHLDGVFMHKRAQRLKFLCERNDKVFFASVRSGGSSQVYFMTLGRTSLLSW
Sequence of CSF1R (FMS) (P07333 20-972): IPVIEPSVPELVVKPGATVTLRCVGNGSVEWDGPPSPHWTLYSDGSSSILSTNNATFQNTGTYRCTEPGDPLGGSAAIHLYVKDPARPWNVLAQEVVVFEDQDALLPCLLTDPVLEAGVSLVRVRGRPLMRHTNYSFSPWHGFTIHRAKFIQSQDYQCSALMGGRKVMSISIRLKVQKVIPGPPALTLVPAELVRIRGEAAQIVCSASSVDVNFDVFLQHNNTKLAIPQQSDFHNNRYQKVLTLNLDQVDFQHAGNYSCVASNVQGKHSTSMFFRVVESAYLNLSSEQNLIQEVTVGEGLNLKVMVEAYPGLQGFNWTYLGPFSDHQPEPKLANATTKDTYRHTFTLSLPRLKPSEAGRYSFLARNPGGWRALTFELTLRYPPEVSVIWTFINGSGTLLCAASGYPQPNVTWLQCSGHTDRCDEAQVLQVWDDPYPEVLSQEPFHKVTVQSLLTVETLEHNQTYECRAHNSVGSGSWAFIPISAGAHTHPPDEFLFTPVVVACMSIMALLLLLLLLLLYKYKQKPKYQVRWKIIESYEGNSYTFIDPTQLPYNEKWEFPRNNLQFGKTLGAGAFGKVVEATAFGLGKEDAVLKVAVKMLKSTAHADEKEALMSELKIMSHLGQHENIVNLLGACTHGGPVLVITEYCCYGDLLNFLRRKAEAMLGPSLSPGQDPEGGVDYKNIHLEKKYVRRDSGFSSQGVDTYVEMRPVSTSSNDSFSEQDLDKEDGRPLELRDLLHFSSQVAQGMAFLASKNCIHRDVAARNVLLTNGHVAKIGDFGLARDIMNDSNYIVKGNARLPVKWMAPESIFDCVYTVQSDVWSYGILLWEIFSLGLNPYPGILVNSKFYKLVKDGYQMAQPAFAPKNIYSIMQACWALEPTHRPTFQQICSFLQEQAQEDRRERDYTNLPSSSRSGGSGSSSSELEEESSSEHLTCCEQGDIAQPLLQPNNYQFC

A word on the inhibition: it is the change of the read-out against control, counted positive when it falls. For the compound `CCn1ncc2c1CCC(Nc1nc3c(-c4ccc(F)cc4C)cccn3n1)C2` (stereo not drawn) [Example 42, (1-Ethyl-4,5,6,7-tetrahydro-1H-indazol-5-yl)-[8-(4-fluoro-2-methyl-phenyl)-[1,2,4]triazolo[1,5-a]pyridine-2-yl]-amine], the inhibition at 10 µM on MAP4K4 (HGK) (setting [1]) was less than 40%; at MAP4K4 (HGK) (setting [2]) it was 37%; on AURKA (Aurora A) (setting [3]), less than 40%; on AURKA (Aurora A) (setting [4]) it was -2%; at CSF1R (FMS) (setting [5]), less than 40%; at CSF1R (FMS) (setting [6]) it was 34%.

Regarding `CCn1ncc2c1CCC(Nc1nc3c(-c4cncc(Cl)c4)cccn3n1)C2` (stereo not drawn) [Example 73, [8-(5-Chloro-pyridin-3-yl)-[1,2,4]triazolo[1,5-a]pyridine-2-yl]-(1-ethyl-4,5,6,7-tetrahydro-1H-indazol-5-yl)-amine], the inhibition at 10 µM at MAP4K4 (HGK) (setting [1]) was 40 to 80%; on MAP4K4 (HGK) (setting [2]), 74%; at AURKA (Aurora A) (setting [3]), greater than 80%; on AURKA (Aurora A) (setting [4]), 85%; at CSF1R (FMS) (setting [5]), 40 to 80%; at CSF1R (FMS) (setting [6]), 79%.

On to `CCn1ncc2c1C(C)CC(Nc1nc3c(-c4cc(F)c(F)c(F)c4)cccn3n1)C2` (stereo not drawn) [Example 49, (1-Ethyl-7-methyl-4,5,6,7-tetrahydro-1H-indazol-5-yl)-[8-(3,4,5-trifluoro-phenyl)-[1,2,4]triazolo[1,5-a]pyridine-2-yl]-amine], for which the inhibition at 10 µM was 40 to 80% on MAP4K4 (HGK) (setting [1]); 54% on MAP4K4 (HGK) (setting [2]); less than 40% on AURKA (Aurora A) (setting [3]); -14% on AURKA (Aurora A) (setting [4]); less than 40% on CSF1R (FMS) (setting [5]); 34% at CSF1R (FMS) (setting [6]).

As to `CC1(C)C(=O)Nc2ccc(Nc3nc4c(-c5cccc(F)c5)cccn4n3)cc21` [Cpd. 263 in WO09155551, reference compound], the inhibition at 10 µM on MAP4K4 (HGK) (setting [1]) was greater than 80%; at MAP4K4 (HGK) (read-out: % Inhibition mean), 98%; on AURKA (Aurora A) (setting [3]), greater than 80%; on AURKA (Aurora A) (read-out: % Inhibition mean) it was 99%; at CSF1R (FMS) (setting [5]), greater than 80%; on CSF1R (FMS) (read-out: % Inhibition mean), 93%.

Take `CCn1ncc2c1CCC(Nc1nc3c(-c4cnccc4OC)cccn3n1)C2` (stereo not drawn) [Example 68, (1-Ethyl-4,5,6,7-tetrahydro-1H-indazol-5-yl)-[8-(4-methoxy-pyridin-3-yl)-[1,2,4]triazolo[1,5-a]pyridine-2-yl]-amine]: the inhibition at 10 µM on MAP4K4 (HGK) (setting [1]) is 40 to 80%; on MAP4K4 (HGK) (setting [2]), 42%; at AURKA (Aurora A) (setting [3]), less than 40%; at AURKA (Aurora A) (setting [4]) it was 39%; at CSF1R (FMS) (setting [5]), 40 to 80%; at CSF1R (FMS) (setting [6]), 66%.

On to `CCCn1ncc2c1CCC(Nc1nc3c(-c4ccc(F)cc4C)cccn3n1)C2` (stereo not drawn) [Example 43, [8-(4-fluoro-2-methyl-phenyl)-[1,2,4]triazolo[1,5-a]pyridine-2-yl]-(1-propyl-4,5,6,7-tetrahydro-1H-indazol-5-yl)-amine], for which the inhibition at 10 µM was 40 to 80% on MAP4K4 (HGK) (setting [1]); 40% on MAP4K4 (HGK) (setting [2]); less than 40% at AURKA (Aurora A) (setting [3]); -17% on AURKA (Aurora A) (setting [4]); less than 40% on CSF1R (FMS) (setting [5]); 28% on CSF1R (FMS) (setting [6]).

Regarding `Cc1cc(F)ccc1-c1cccn2nc(Nc3ccc4c(cnn4C)c3)nc12` [Example 9, [8-(4-fluoro-2-methyl-phenyl)-[1,2,4]triazolo[1,5-a]pyridine-2-yl]-(1-methyl-1H-indazol-5-yl)-amine], the inhibition at 10 µM at MAP4K4 (HGK) (setting [1]) is less than 40%; on MAP4K4 (HGK) (setting [2]), 6%; on AURKA (Aurora A) (setting [3]) it was 40 to 80%; on AURKA (Aurora A) (setting [4]), 57%; on CSF1R (FMS) (setting [5]) it was greater than 80%; on CSF1R (FMS) (setting [6]), 82%.

On to `CC1(C)NC(=O)c2ccc(Nc3nc4c(-c5cccc(F)c5)cccn4n3)cc21` [Cpd. 302 in WO09155551, reference compound], for which the inhibition at 10 µM is greater than 80% at MAP4K4 (HGK) (setting [1]); 99% on MAP4K4 (HGK) (read-out: % Inhibition mean); greater than 80% on AURKA (Aurora A) (setting [3]); 98% on AURKA (Aurora A) (read-out: % Inhibition mean); greater than 80% at CSF1R (FMS) (setting [5]); 95% at CSF1R (FMS) (read-out: % Inhibition mean).

Regarding `CCCCn1ncc2c1CCC(Nc1nc3c(-c4ccc(F)cc4C)cccn3n1)C2` (stereo not drawn) [Example 46, [8-(4-fluoro-2-methyl-phenyl)-[1,2,4]triazolo[1,5-a]pyridine-2-yl]-(1-butyl-4,5,6,7-tetrahydro-1H-indazol-5-yl)-amine], the inhibition at 10 µM on MAP4K4 (HGK) (setting [1]) was 40 to 80%; at MAP4K4 (HGK) (setting [2]) it was 48%; at AURKA (Aurora A) (setting [3]) it was less than 40%; on AURKA (Aurora A) (setting [4]) it was 14%; at CSF1R (FMS) (setting [5]) it was less than 40%; on CSF1R (FMS) (setting [6]), 24%.

Regarding `Cc1cc(F)ccc1-c1cccn2nc(NC3CCc4c(cnn4C(C)C)C3)nc12` (stereo not drawn) [Example 44, [8-(4-fluoro-2-methyl-phenyl)-[1,2,4]triazolo[1,5-a]pyridine-2-yl]-(1-isopropyl-4,5,6,7-tetrahydro-1H-indazol-5-yl)-amine], the inhibition at 10 µM is less than 40% on MAP4K4 (HGK) (setting [1]); 37% at MAP4K4 (HGK) (setting [2]); less than 40% on AURKA (Aurora A) (setting [3]); 7% at AURKA (Aurora A) (setting [4]); 40 to 80% on CSF1R (FMS) (setting [5]); 43% on CSF1R (FMS) (setting [6]).

On to `CCn1ncc2c1CC[C@H](Nc1nc3c(-c4ccc(F)c(Cl)c4)cccn3n1)C2` [Example S-61, (S)-[8-(3-Chloro-4-fluoro-phenyl)-[1,2,4]triazolo[1,5-a]pyridine-2-yl]-(1-ethyl-4,5,6,7-tetrahydro-1H-indazol-5-yl)-amine], for which the inhibition at 10 µM on MAP4K4 (HGK) (setting [1]) was less than 40%; at MAP4K4 (HGK) (setting [2]), 11%; at AURKA (Aurora A) (setting [3]), less than 40%; on AURKA (Aurora A) (setting [4]), -21%; on CSF1R (FMS) (setting [5]) it was less than 40%; on CSF1R (FMS) (setting [6]) it was 18%.
